# Test results as given in patent publication US20120251643A1, “ANTI-DIABETIC EXTRACT OF HONEYBUSH” (Zadec ApS, priority 2007, published 2012).
# Key:
# [1] = Bioassay of purified fractions for anti-diabetic activity
# From the text: The partially purified active extract may be dissolved in methanol, and may be further fractionated by column chromatography, employing silica gel as an adsorption medium and a chloroform/30% methanol mixture as an eluent. A plurality of different fractions may be obtained, and each may be evaluated, by suitable bioassaying procedures, to determine the anti-diabetic activity thereof.
# A fraction having anti-diabetic activity may preferably be further fractionated such as by column chromatography using silica gel as an adsorption medium and a 9:1 chloroform:methanol solvent, and the resultant sub-fractions bioassayed for their anti-diabetic activity. A sub-fraction displaying anti-diabetic activity may, if desired, be further fractionated and purified, conveniently using a column chromatographic procedure with silica gel as the adsorption medium and a 9:1 ethylacetate:hexane solvent. The resultant purified fractions may again be evaluated by suitable bioassay procedures for their anti-diabetic activity.
# [2] = test system: diabetic rats (T1D and T2D); experiment: Flavonoids and extract administered to diabetic rats; assay type: in vivo; conditions: for results in diabetic rats compared with the extract: extracted and fractionated from Cyclopia
# Experimental: The flavonoids specifically used were mangiferin and hesperidin.
# Experiments with diabetic test animals (rats) were carried out.
SMILES,anti-diabetic activity of purified fraction [1],lowering of blood sugar and diabetic symptoms ([2]; both T1D and T2D rats),results in diabetic rats compared with the extract [2]
O=c1c2cc(O)c(O)cc2oc2cc(O)c([C@@H]3O[C@H](CO)[C@@H](O)[C@H](O)[C@H]3O)c(O)c12 [mangiferin],superior anti-diabetic activity,effective in lowering the blood sugar and generally alleviating diabetic symptoms,results similar to those produced by the extract
"COc1ccc([C@@H]2CC(=O)c3c(O)cc(O[C@@H]4O[C@H](CO[C@@H]5O[C@@H](C)[C@H](O)[C@@H](O)[C@H]5O)[C@@H](O)[C@H](O)[C@H]4O)cc3O2)cc1O [hesperidin, 7-[[6-O-(6-deoxy-α-L-mannopyranosyl)-β-D-glucopyranosyl]oxy]-2,3-dihydro-5-hydroxy-2-(3-hydroxy-4-methoxyphenyl)-4H-1-benzopyran-4-on]",,,results similar to those produced by the extract
